Measurements taken from PubChem BioAssay (NCI).
“And” between values parts separate entries of the source, which are not always exact repeats. Equal values may be shown once.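 Cells were grown in 96-well plates and exposed to each compound for 48 hours at five concentrations; endpoints were interpolated linearly between bracketing concentrations, or set to the highest concentration if not reached. Abbreviation: GI50, concentration required for 50% inhibition of growth. TGI is the concentration that stops growth completely.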

Tests used:
Assay in all cases: growth of human tumour cells (NCI), 48 h
CAKI-1 renal = test system: CAKI-1 renal
IGROV1 ovarian = test system: IGROV1 ovarian
NCI-H226 lung = test system: NCI-H226 lung
NCI-H460 lung = test system: NCI-H460 lung
OVCAR-5 ovarian = test system: OVCAR-5 ovarian
SF-295 CNS = test system: SF-295 CNS
SK-MEL-28 melanoma = test system: SK-MEL-28 melanoma
SK-MEL-5 melanoma = test system: SK-MEL-5 melanoma
SNB-19 CNS = test system: SNB-19 CNS
SW-620 colon = test system: SW-620 colon

| Compound | GI50 (CAKI-1 renal) | TGI (CAKI-1 renal) | GI50 (IGROV1 ovarian) | TGI (IGROV1 ovarian) | GI50 (NCI-H226 lung) [µM] | TGI (NCI-H226 lung) [µM] | GI50 (NCI-H460 lung) | TGI (NCI-H460 lung) | GI50 (OVCAR-5 ovarian) | TGI (OVCAR-5 ovarian) | GI50 (SF-295 CNS) | TGI (SF-295 CNS) | GI50 (SK-MEL-28 melanoma) | TGI (SK-MEL-28 melanoma) | GI50 (SK-MEL-5 melanoma) | TGI (SK-MEL-5 melanoma) | GI50 (SNB-19 CNS) | TGI (SNB-19 CNS) | GI50 (SW-620 colon) | TGI (SW-620 colon) |
| --- | --- | --- | --- | --- | --- | --- | --- | --- | --- | --- | --- | --- | --- | --- | --- | --- | --- | --- | --- | --- |
| COc1cc(/C=C/C(=O)c2c(C)n([O-])c3ccc(Cl)cc3[n+]2=O)cc(OC)c1OC | > 100 µM | > 100 µM | 35.4 µM | > 100 µM | 65.2 | > 100 | 56.6 µM | > 100 µM | > 100 µM | > 100 µM | 35 µM | > 100 µM | > 100 µM | > 100 µM | 68 µM | > 100 µM | 21.2 µM | 77 µM | > 100 µM | > 100 µM |
| C=CCN=C1NC(=O)C(CC(=O)Nc2ccc(C)cc2)S1 (stereo not drawn) | – | > 100 µM | – | > 100 µM | – | > 100 | – | > 100 µM | – | > 100 µM | – | > 100 µM | – | > 100 µM | – | > 100 µM | – | > 100 µM | – | > 100 µM |
| O=C1/C(=C/c2ccc(Cl)cc2)COc2ccc(O)c(O)c21 | 1.07 µM | 2.28 µM | 0.438 µM | 2.16 µM | 1.86 | 5.18 | 1.78 µM | 3.89 µM | 1.6 µM | 3.21 µM | 3.37 µM | 13.2 µM | 1.53 µM | 3.06 µM | 1.51 µM | 2.9 µM | 1.43 µM | 2.95 µM | 0.838 µM | 2.94 µM |
| O=C(NCP(=O)(O)O)c1cccnc1 | – | > 100 µM | – | > 100 µM | – | > 100 | – | > 100 µM | – | > 100 µM | – | > 100 µM | – | > 100 µM | – | > 100 µM | – | > 100 µM | – | > 100 µM |
| COc1cc(/C=C2/C(=O)NC(Cc3cc(OC)c(OC)c(C)c3OC)C(=O)N2Cc2ccccc2)c(OC)c(C)c1OC (stereo not drawn) | – | > 100 µM | – | > 100 µM | – | > 100 | – | > 100 µM | – | > 100 µM | – | > 100 µM | – | > 100 µM | – | > 100 µM | – | > 100 µM | – | > 100 µM |
| COc1ccc2c(c1)CC1c3c(cc4c(c3-2)OCO4)CCN1C (stereo not drawn) | – | 60.2 µM | – | 85.8 µM | – | 64.9 | – | 60.4 µM | – | > 100 µM | – | 50 µM | – | 95.8 µM | – | 30.6 µM | – | > 100 µM | – | 59.8 µM |
| O=C(CCCCCCC(=O)Nc1ccc2c(c1)/C(=C/c1ccc[nH]1)C(=O)N2)NO | 2.33 µM | > 100 µM | 1.61 µM | 7.9 µM | 2.28 | 12 | 2.67 µM | > 100 µM | 0.755 µM | 5.75 µM | 1.3 µM | 7.51 µM | 0.372 µM | 9.3 µM | 0.24 µM | 1.41 µM | 0.585 µM | 33.2 µM | 0.271 µM | > 21.9 µM |
| COc1ccc2nc(C)cc(Nc3ccccc3O)c2c1 | 36.1 µM | > 100 µM | 31.4 µM | > 100 µM | 28 | > 100 | 19.4 µM | 54.4 µM | 28.9 µM | > 100 µM | 24.5 µM | > 100 µM | 21.3 µM | 57.3 µM | 15.4 µM | 30.4 µM | 76.5 µM | > 100 µM | 26.7 µM | > 100 µM |
| Cc1ccc(C2=C(c3ccccc3)C(Br)(c3ccccc3)C(c3ccccc3)=C2c2ccc(C)cc2)cc1 | – | > 100 µM | – | > 100 µM | – | > 100 | – | > 100 µM | – | > 100 µM | – | > 100 µM | – | > 100 µM | – | > 100 µM | – | > 100 µM | – | > 100 µM |
| O=P1(O)c2ccccc2Nc2cc(C(F)(F)F)ccc21 | – | > 100 µM | – | > 100 µM | – | > 100 | – | > 100 µM | – | > 100 µM | – | > 100 µM | – | > 100 µM | – | > 100 µM | – | > 100 µM | – | > 100 µM |
| CNc1nc(N(C)C)nc(N(C)C)n1 | > 100 µM and 926 µM | > 100 µM and 2620 µM | > 100 µM and 1100 µM | > 100 µM and 2640 µM | – | 2530 | > 100 µM and 894 µM | > 100 µM and 3000 µM | > 100 µM and 909 µM | > 100 µM and 3960 µM | > 100 µM and 1130 µM | > 100 µM and 2440 µM | > 100 µM and 1240 µM | > 100 µM and 2700 µM | > 100 µM and 1130 µM | > 100 µM and 2840 µM | > 100 µM and 1210 µM | > 100 µM and 3780 µM | > 100 µM and 1870 µM | > 100 µM and 4030 µM |
| CCCCCCCCCCCC[n+]1ccc(C(N)=O)cc1 | 10.7 µM | 26.2 µM | 1.4 µM | 3.5 µM | 3.43 | 16.3 | 3.81 µM | 14.1 µM | 1.47 µM | 4.56 µM | 2.8 µM | 11.6 µM | 4.33 µM | 15 µM | 1.63 µM | 3.05 µM | 1.82 µM | 4.34 µM | 3.16 µM | 14.4 µM |
| C=C1C(=O)O[C@H]2[C@H]1CC/C(CNS(=O)(=O)c1cccc3ccccc13)=C\CC[C@@]1(C)O[C@@H]21 | 1.12 µM | 2.56 µM | 1.38 µM | 3.4 µM | 13.2 | 33 | 4.28 µM | 17 µM | 2.84 µM | 8.44 µM | 5.49 µM | 19.2 µM | 1.97 µM | 4.24 µM | 1.95 µM | 3.98 µM | 5.44 µM | 19.8 µM | 0.713 µM | 2.26 µM |
| O=C(N/N=C\c1ccc(N(CCCl)CCCl)cc1Cl)c1cccnc1 | 7.06 µM | 48.2 µM | 1.5 µM | 24.5 µM | 0.127 | 0.604 | 0.192 µM | 12.7 µM | 0.981 µM | 11.3 µM | 0.565 µM | 9.97 µM | 26.5 µM | > 100 µM | 13.3 µM | 34.8 µM | 45.1 µM | > 100 µM | 19.2 µM | > 100 µM |
| COc1ccc(/C=C/C(=O)c2cc3c(N)c(C(=O)Nc4ccccc4)sc3nc2C)cc1 | 0.258 µM | > 50 µM | 0.252 µM | > 50 µM | 0.55 | 7.28 | 0.195 µM | – | 0.385 µM | > 50 µM | 0.232 µM | > 50 µM | 2.16 µM | > 45.1 µM | 0.136 µM | 0.862 µM | 0.269 µM | > 50 µM | 0.216 µM | 11.7 µM |
| C/C(=C\CC[C@]1(C)OC(C)(C)OC1CC/C(C)=C/CO[Si](c1ccccc1)(c1ccccc1)C(C)(C)C)CC/C=C/CO[Si](C)(C)C(C)(C)C (stereo partly drawn) | – | > 100 µM | – | > 100 µM | – | > 100 | – | > 100 µM | – | > 100 µM | – | > 100 µM | – | > 100 µM | – | > 100 µM | – | > 100 µM | – | > 100 µM |
| C=C1CC[C@@H]2[C@](C)(COC(C)=O)[C@H](OC(C)=O)CC[C@@]2(C)[C@@H]1C/C=C1/C(=O)OC[C@H]1OC(C)=O | 6.67 µM | 19.6 µM | 2.41 µM | 6.23 µM | 2.14 | 5.42 | 18.6 µM | 37.7 µM | 1.93 µM | 3.92 µM | 13.3 µM | 26.8 µM | 1.75 µM | 3.38 µM | 9.5 µM | 22.4 µM | 10.8 µM | 24.5 µM | 2.29 µM | 5.85 µM |
| COC(=O)c1cc2oc(/C=C3\SC(=S)N(NC(C)=O)C3=O)cc2n1Cc1ccccc1 | 2.42 µM | 7.79 µM | 7.31 µM | > 50 µM | 9.72 | 22.4 | 1.28 µM | 37.1 µM | 7.36 µM | 19.1 µM | 2.11 µM | 15.6 µM | 9.06 µM | 38.5 µM | 2.08 µM | 10.7 µM | 6.8 µM | 21.2 µM | 8.35 µM | 39 µM |
| CCCN(CCC)C(=O)[C@H](CC)[C@@H]1CC[C@@H](C)[C@@H]([C@H](C)[C@@H](O)[C@@H](C)C(=O)[C@H](CC)C2O[C@]3(C=C[C@@H](O)[C@]4(CC[C@@](C)([C@H]5CC[C@](O)(CC)[C@H](C)O5)O4)O3)[C@H](C)C[C@@H]2C)O1 (stereo partly drawn) | 1.95 µM | 8.7 µM | 2.59 µM | 10.5 µM | 1.93 | 5.3 | 2.07 µM | 4.62 µM | 2.09 µM | 5.27 µM | 2.45 µM | 8.91 µM | 4.5 µM | 17.9 µM | 1.73 µM | 3.16 µM | 3.36 µM | 59.2 µM | 3.23 µM | 10.6 µM |
| Oc1c(N=Nc2ccccc2)c2ccccc2c2ccc3ccccc3c12 | – | > 100 µM | – | > 100 µM | – | > 100 | – | > 100 µM | – | > 100 µM | – | > 100 µM | – | > 100 µM | – | > 100 µM | – | > 100 µM | – | > 100 µM |
| C=CC(=O)Nc1cccc(C)c1Nc1ncc2cc(-c3c(Cl)c(OC)cc(OC)c3Cl)ccc2n1 | 8.39 µM | > 100 µM | 8.18 µM | 26 µM | 3.18 | 18.1 | 1.64 µM | 11.5 µM | 17.9 µM | > 100 µM | 3.26 µM | > 100 µM | 12.7 µM | 55.6 µM | 2.61 µM | 9.63 µM | 4.14 µM | 47.1 µM | 3.9 µM | 39.5 µM |
